The NIST ThermoML archive (doi:10.1016/j.jct.2016.08.005)

Details: Liquid, Vibrating tube method

Cc1ccsc1 [3-methylthiophene]
Details	mass density [kg/m3]
283.15 K, 100 kPa	1031.82
283.15 K, 2000 kPa	1033.26
283.15 K, 5000 kPa	1035.47
283.15 K, 7000 kPa	1036.93
283.15 K, 10000 kPa	1039.07
283.15 K, 15000 kPa	1042.56
283.15 K, 20000 kPa	1045.93
283.15 K, 25000 kPa	1049.2
283.15 K, 30000 kPa	1052.37
283.15 K, 35000 kPa	1055.46
283.15 K, 40000 kPa	1058.46
283.15 K, 45000 kPa	1061.37
283.15 K, 50000 kPa	1064.22
283.15 K, 55000 kPa	1066.97
283.15 K, 60000 kPa	1069.67
283.15 K, 65000 kPa	1072.32
288.15 K, 100 kPa	1026.57
288.15 K, 2000 kPa	1028.05
288.15 K, 5000 kPa	1030.34
288.15 K, 7000 kPa	1031.84
288.15 K, 10000 kPa	1034.03
288.15 K, 15000 kPa	1037.61
288.15 K, 20000 kPa	1041.07
288.15 K, 25000 kPa	1044.41
288.15 K, 30000 kPa	1047.65
288.15 K, 35000 kPa	1050.8
288.15 K, 40000 kPa	1053.86
288.15 K, 45000 kPa	1056.84
288.15 K, 50000 kPa	1059.74
288.15 K, 55000 kPa	1062.56
288.15 K, 60000 kPa	1065.32
288.15 K, 65000 kPa	1068.01
293.15 K, 100 kPa	1021.31
293.15 K, 2000 kPa	1022.81
293.15 K, 5000 kPa	1025.16
293.15 K, 7000 kPa	1026.7
293.15 K, 10000 kPa	1028.95
293.15 K, 15000 kPa	1032.61
293.15 K, 20000 kPa	1036.16
293.15 K, 25000 kPa	1039.6
293.15 K, 30000 kPa	1042.92
293.15 K, 35000 kPa	1046.15
293.15 K, 40000 kPa	1049.27
293.15 K, 45000 kPa	1052.31
293.15 K, 50000 kPa	1055.28
293.15 K, 55000 kPa	1058.15
293.15 K, 60000 kPa	1060.96
293.15 K, 65000 kPa	1063.7
298.15 K, 100 kPa	1016
298.15 K, 2000 kPa	1017.57
298.15 K, 5000 kPa	1019.98
298.15 K, 7000 kPa	1021.56
298.15 K, 10000 kPa	1023.89
298.15 K, 15000 kPa	1027.64
298.15 K, 20000 kPa	1031.29
298.15 K, 25000 kPa	1034.81
298.15 K, 30000 kPa	1038.2
298.15 K, 35000 kPa	1041.52
298.15 K, 40000 kPa	1044.71
298.15 K, 45000 kPa	1047.82
298.15 K, 50000 kPa	1050.84
298.15 K, 55000 kPa	1053.78
298.15 K, 60000 kPa	1056.65
298.15 K, 65000 kPa	1059.43
303.15 K, 100 kPa	1010.72
303.15 K, 2000 kPa	1012.32
303.15 K, 5000 kPa	1014.81
303.15 K, 7000 kPa	1016.43
303.15 K, 10000 kPa	1018.83
303.15 K, 15000 kPa	1022.7
303.15 K, 20000 kPa	1026.42
303.15 K, 25000 kPa	1030.01
303.15 K, 30000 kPa	1033.5
303.15 K, 35000 kPa	1036.87
303.15 K, 40000 kPa	1040.16
303.15 K, 45000 kPa	1043.34
303.15 K, 50000 kPa	1046.42
303.15 K, 55000 kPa	1049.41
303.15 K, 60000 kPa	1052.33
303.15 K, 65000 kPa	1055.16
308.15 K, 100 kPa	1005.4
308.15 K, 2000 kPa	1007.04
308.15 K, 5000 kPa	1009.61
308.15 K, 7000 kPa	1011.27
308.15 K, 10000 kPa	1013.72
308.15 K, 15000 kPa	1017.69
308.15 K, 20000 kPa	1021.53
308.15 K, 25000 kPa	1025.22
308.15 K, 30000 kPa	1028.73
308.15 K, 35000 kPa	1032.24
308.15 K, 40000 kPa	1035.59
308.15 K, 45000 kPa	1038.84
308.15 K, 50000 kPa	1041.98
308.15 K, 55000 kPa	1045.05
308.15 K, 60000 kPa	1048.03
308.15 K, 65000 kPa	1050.91
313.15 K, 100 kPa	1000.05
313.15 K, 2000 kPa	1001.76
313.15 K, 5000 kPa	1004.39
313.15 K, 7000 kPa	1006.11
313.15 K, 10000 kPa	1008.64
313.15 K, 15000 kPa	1012.71
313.15 K, 20000 kPa	1016.63
313.15 K, 25000 kPa	1020.43
313.15 K, 30000 kPa	1024.08
313.15 K, 35000 kPa	1027.61
313.15 K, 40000 kPa	1031.05
313.15 K, 45000 kPa	1034.35
313.15 K, 50000 kPa	1037.58
313.15 K, 55000 kPa	1040.71
313.15 K, 60000 kPa	1043.73
313.15 K, 65000 kPa	1046.69
318.15 K, 100 kPa	994.7
318.15 K, 2000 kPa	996.44
318.15 K, 5000 kPa	999.15
318.15 K, 7000 kPa	1000.93
318.15 K, 10000 kPa	1003.52
318.15 K, 15000 kPa	1007.7
318.15 K, 20000 kPa	1011.74
318.15 K, 25000 kPa	1015.6
318.15 K, 30000 kPa	1019.35
318.15 K, 35000 kPa	1022.99
318.15 K, 40000 kPa	1026.48
318.15 K, 45000 kPa	1029.86
318.15 K, 50000 kPa	1033.15
318.15 K, 55000 kPa	1036.33
318.15 K, 60000 kPa	1039.44
318.15 K, 65000 kPa	1042.45
323.15 K, 100 kPa	989.3
323.15 K, 2000 kPa	991.1
323.15 K, 5000 kPa	993.9
323.15 K, 7000 kPa	995.72
323.15 K, 10000 kPa	998.41
323.15 K, 15000 kPa	1002.71
323.15 K, 20000 kPa	1006.85
323.15 K, 25000 kPa	1010.83
323.15 K, 30000 kPa	1014.66
323.15 K, 35000 kPa	1018.35
323.15 K, 40000 kPa	1021.93
323.15 K, 45000 kPa	1025.4
323.15 K, 50000 kPa	1028.76
323.15 K, 55000 kPa	1032.03
323.15 K, 60000 kPa	1035.18
323.15 K, 65000 kPa	1038.24
328.15 K, 100 kPa	983.88
328.15 K, 2000 kPa	985.74
328.15 K, 5000 kPa	988.63
328.15 K, 7000 kPa	990.51
328.15 K, 10000 kPa	993.26
328.15 K, 15000 kPa	997.7
328.15 K, 20000 kPa	1001.93
328.15 K, 25000 kPa	1006
328.15 K, 30000 kPa	1009.94
328.15 K, 35000 kPa	1013.73
328.15 K, 40000 kPa	1017.38
328.15 K, 45000 kPa	1020.94
328.15 K, 50000 kPa	1024.36
328.15 K, 55000 kPa	1027.68
328.15 K, 60000 kPa	1030.89
328.15 K, 65000 kPa	1034.03
333.15 K, 100 kPa	978.47
333.15 K, 2000 kPa	980.39
333.15 K, 5000 kPa	983.35
333.15 K, 7000 kPa	985.3
333.15 K, 10000 kPa	988.13
333.15 K, 15000 kPa	992.67
333.15 K, 20000 kPa	997.03
333.15 K, 25000 kPa	1001.22
333.15 K, 30000 kPa	1005.22
333.15 K, 35000 kPa	1009.12
333.15 K, 40000 kPa	1012.87
333.15 K, 45000 kPa	1016.49
333.15 K, 50000 kPa	1020
333.15 K, 55000 kPa	1023.38
333.15 K, 60000 kPa	1026.67
333.15 K, 65000 kPa	1029.88
338.15 K, 100 kPa	972.98
338.15 K, 2000 kPa	974.96
338.15 K, 5000 kPa	978.01
338.15 K, 7000 kPa	980.02
338.15 K, 10000 kPa	982.95
338.15 K, 15000 kPa	987.63
338.15 K, 20000 kPa	992.12
338.15 K, 25000 kPa	996.41
338.15 K, 30000 kPa	1000.53
338.15 K, 35000 kPa	1004.49
338.15 K, 40000 kPa	1008.33
338.15 K, 45000 kPa	1012.04
338.15 K, 50000 kPa	1015.62
338.15 K, 55000 kPa	1019.08
338.15 K, 60000 kPa	1022.44
338.15 K, 65000 kPa	1025.7
